Measured values taken from US5861405A, “S-substituted 1,3,7-trialkyl-xanthine derivatives” (priority 1994, dated 1999).
Where “and” joins values, the source holds several entries; their conditions need not be identical. Equal entries are not always repeated. Where two headings read alike, the source gives them in different places.

Key:
[1] = molecular target: T1, rat A1 cortical receptors (Rattus norvegicus, UniProt P25099); test: Radioligand binding, [3H]N6-phenylisopropyladenosine ([3H]PIA), rat cortical A1 receptors; conditions: for Ki: vs [3H]PIA (1 nM), read-out: Ki (A1)
T1 construct: Rat cerebral cortical membranes and striatal membranes were prepared; from tissue; host or cells: rat cerebral cortex membranes
T1 sequence (P25099 1-326): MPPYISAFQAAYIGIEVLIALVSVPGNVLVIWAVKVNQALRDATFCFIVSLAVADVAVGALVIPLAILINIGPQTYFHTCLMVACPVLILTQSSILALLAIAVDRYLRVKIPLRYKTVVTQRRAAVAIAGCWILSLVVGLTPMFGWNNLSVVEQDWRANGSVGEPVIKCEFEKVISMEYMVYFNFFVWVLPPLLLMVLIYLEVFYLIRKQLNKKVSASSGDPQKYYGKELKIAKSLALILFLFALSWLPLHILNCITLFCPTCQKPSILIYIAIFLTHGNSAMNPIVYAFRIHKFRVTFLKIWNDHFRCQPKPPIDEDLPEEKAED

[2] = molecular target: rat striatal A2a receptors (Rattus norvegicus, UniProt P30543); test: Radioligand binding, [3H]CGS 21680, rat striatal A2a receptors; design: Rat cerebral cortical membranes and striatal membranes were prepared; from tissue; host or cells: rat striatal membranes; conditions: for A1/A2a ratio: ratio of Ki values; for potency or selectivity in binding, in words: rat A1 and A2 binding; for A2-selectivity: rat brain binding, this study
[3] = Table III, vs [3H]CGS21680 (5 nM), read-out: Ki (A2)
[4] = Table I, vs [3H]CGS21680 (5 nM), rat striatal A2 receptors, read-out: Ki (A2a)
[5] = vs [3H]CGS 21680, read-out: Ki value / affinity at A2 receptors

Chain of rat striatal A2a receptors (P30543 whole entry): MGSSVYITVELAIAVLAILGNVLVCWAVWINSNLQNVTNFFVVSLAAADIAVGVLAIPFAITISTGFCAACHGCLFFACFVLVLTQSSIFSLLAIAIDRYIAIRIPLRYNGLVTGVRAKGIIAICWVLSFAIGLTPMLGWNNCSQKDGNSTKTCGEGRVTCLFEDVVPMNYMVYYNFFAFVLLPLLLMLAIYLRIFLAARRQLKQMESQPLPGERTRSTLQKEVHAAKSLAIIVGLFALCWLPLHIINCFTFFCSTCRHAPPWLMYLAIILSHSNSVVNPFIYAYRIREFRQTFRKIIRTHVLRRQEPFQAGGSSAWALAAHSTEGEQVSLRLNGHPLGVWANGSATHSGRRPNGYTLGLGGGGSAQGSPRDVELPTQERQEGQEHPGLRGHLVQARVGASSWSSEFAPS

| Compound | Ki ([1]; Table I, rat A1 receptors) [nM] | A1/A2a ratio ([2]; Table I) | Ki [2, 4] [nM] | other results |
| --- | --- | --- | --- | --- |
| Cn1c(=O)c2c(nc(/C=C/C(=O)Nc3ccccc3)n2C)n(C)c1=O [C(O)NH-phenyl(Rβ = H)] |  |  |  | Ki ([1]; Table III): 50000 nM; A1/A2 ratio ([2]; Table III): 19.8; Ki [2, 3]: 2530 nM |
| Cn1c(=O)c2c(nc(/C=C/C(=O)OC(C)(C)C)n2C)n(C)c1=O [C(O)OC(CH3)3 (Rβ = H), 8-(trans-2-tert-Butyloxycarbonylvinyl)-1,3,7-trimethylxanthine] |  |  |  | Ki ([1]; Table III): 18000 nM; A1/A2 ratio ([2]; Table III): 31; Ki [2, 3]: 590 nM |
| Cn1c(=O)c2c(nc(/C=C/C(=O)O)n2C)n(C)c1=O [C(O)OH(Rβ = H), 8-(trans-2-Carboxyvinyl)-1,3,7-trimethylxanthine] |  |  |  | Ki ([1]; Table III): > 100000 nM; A1/A2 ratio ([2]; Table III): > 3; Ki [2, 3]: 30000 nM |
| Cn1c(=O)c2[nH]c(/C=C/c3ccccc3)nc2n(C)c1=O [Compound 15a] | 654 ± 170 | 2.3 | 291 ± 40 | potency or selectivity in binding, in words [2]: non-selective |
| Cn1c(=O)c2c(nc(/C=C/c3ccccc3)n2C)n(C)c1=O [Compound 15b] | 3890 |  |  |  |
| Cn1c(=O)c2[nH]c(/C(F)=C/c3ccccc3)nc2n(C)c1=O [Compound 16] | 2190 | 1.4 | 2110 |  |
| COc1ccccc1/C=C/c1nc2c([nH]1)c(=O)n(C)c(=O)n2C [Compound 17a, 1,3-Dimethyl-8-(2-methoxystyryl)xanthine] | 1730 | 2.7 | 645 ± 144 |  |
| COc1ccccc1/C=C/c1nc2c(c(=O)n(C)c(=O)n2C)n1C [Compound 17b, 1,3,7-Trimethyl-8-(2-methoxystyryl)xanthine] | 4760 | 18 | 267 ± 84 |  |
| Cn1c(=O)c2[nH]c(/C=C/c3cccc(O)c3)nc2n(C)c1=O [Compound 18] | 702 ± 40 | 2.4 | 303 ± 55 | potency or selectivity in binding, in words [2]: equipotent with the methoxy compound, 19b, at A2 -receptors and more potent at A1 -receptors |
| COc1cccc(/C=C/c2nc3c([nH]2)c(=O)n(C)c(=O)n3C)c1 [Compound 19a] | 1830 | 4.8 | 378 ± 155 |  |
| COc1cccc(/C=C/c2nc3c(c(=O)n(C)c(=O)n3C)n2C)c1 [Compound 19b] | 5430 | 64 | 84.8 ± 24 | Ki [2, 5]: 85 nM |
| Cn1c(=O)c2[nH]c(/C=C/c3cccc(C(F)(F)F)c3)nc2n(C)c1=O [Compound 20a, 1,3-Dimethyl-8-(3-trifluoromethylstyryl)xanthine] | 881 ± 251 | 2.6 | 343 ± 58 |  |
| Cn1c(=O)c2c(nc(/C=C/c3cccc(C(F)(F)F)c3)n2C)n(C)c1=O [Compound 20b, 1,3,7-Trimethyl-8-(3-trifluoromethylstyryl)xanthine] | 3330 | 25 | 134 ± 44 |  |
| Cn1c(=O)c2[nH]c(/C=C/c3cccc([N+](=O)[O-])c3)nc2n(C)c1=O [Compound 21a, 1,3-Dimethyl-8-(3-nitrostyryl)xanthine] | 1060 | 2.4 | 438 ± 106 |  |
| Cn1c(=O)c2c(nc(/C=C/c3cccc([N+](=O)[O-])c3)n2C)n(C)c1=O [Compound 21b, 1,3,7-Trimethyl-8-(3-nitrostyryl)xanthine] | 2140 | 11 | 195 ± 44 |  |
| Cn1c(=O)c2[nH]c(/C=C/c3cccc(N)c3)nc2n(C)c1=O [Compound 22a, 1,3-Dimethyl-8-(3-aminostyryl)xanthine] | 288 ± 60 | 1.4 | 202 ± 79 |  |
| Cn1c(=O)c2c(nc(/C=C/c3cccc(N)c3)n2C)n(C)c1=O [Compound 22b, 1,3,7-Trimethyl-8-(3-aminostyryl)xanthine] | 1690 | 30 | 57 ± 3 | A2-selectivity [2]: 30 fold |
| CC(=O)Nc1cccc(/C=C/c2nc3c(c(=O)n(C)c(=O)n3C)n2C)c1 [Compound 23, 1,3,7-Trimethyl-8-(3-acetylaminostyryl)xanthine] | 9470 | 240 | 39 ± 21 | Ki [2, 5]: 39 nM and ≤ 50 nM |
| Cn1c(=O)c2c(nc(/C=C/c3cccc(NC(=O)OC(C)(C)C)c3)n2C)n(C)c1=O [Compound 25, 1,3,7-Trimethyl-8-(3-tert-butyloxycarbonylaminostyryl)xanthine] |  |  | 784 ± 100 |  |
| Cn1c(=O)c2c(nc(/C=C/c3cccc(N(C(=O)OC(C)(C)C)C(=O)OC(C)(C)C)c3)n2C)n(C)c1=O [Compound 26, 1,3,7-Trimethyl-8-[3-[di-(tert-butyloxycarbonyl)amino]styryl]xanthine] | 10800 | 15 | 740 ± 77 | reduction of potency at A2-receptors ([2]; very bulky 3-position substituents): roughly 20 fold |
| COc1cc(/C=C/c2nc3c(c(=O)n(C)c(=O)n3C)n2CCc2ccccc2)cc(OC)c1OC [Compound 44f] |  |  |  | inhibition at 10 µM ([1]; 1.5 h, at 10^-5, vs [3H]PIA, read-out: Percent displacement of specific binding (A1)): 32 ± 9% |
| COc1cccc2cc(-c3nc4c(c(=O)n(C)c(=O)n4C)n3C)oc12 [Compound 58b] |  |  |  | Ki ([2]; Table IV, vs [3H]CGS21680 (5 nM), read-out: Ki (A2)): 4740 nM |

Now from value to compound, other results behind:

| Ki ([1]; Table I, rat A1 receptors) [nM] | A1/A2a ratio ([2]; Table I) | Ki [2, 4] [nM] | Compound | other results |
| --- | --- | --- | --- | --- |
| 2720 | 5.3 | 516 ± 99 | Cn1c(=O)c2[nH]c(/C=C/c3cccc(F)c3)nc2n(C)c1=O [Compound 27a] |  |
| 15800 | 190 | 83 ± 18 | Cn1c(=O)c2c(nc(/C=C/c3cccc(F)c3)n2C)n(C)c1=O [Compound 27b] | A2-selectivity [2]: ≥ 200 fold |
| 3520 | 120 | 29.2 ± 3.1 | Cn1c(=O)c2c(nc(/C=C/c3cccc(Br)c3)n2C)n(C)c1=O [Compound 28b] |  |
| 2370 | 61 | 38.6 ± 12.5 | Cn1c(=O)c2c(nc(/C=C/c3cccc(I)c3)n2C)n(C)c1=O [Compound 28c] |  |
| 2990 | 46 | 64.8 ± 19.6 | Cn1c(=O)c2c(nc(/C=C/c3cccc([N+]#N)c3)n2C)n(C)c1=O [Compound 28d] |  |
| 858 ± 320 | 1.8 | 472 ± 132 | COc1ccc(/C=C/c2nc3c([nH]2)c(=O)n(C)c(=O)n3C)cc1 [Compound 29a, 1,3-Dimethyl-8-(4-methoxystyryl)xanthine] |  |
| 14200 | 44 | 327 ± 75 | COc1ccc(/C=C/c2nc3c(c(=O)n(C)c(=O)n3C)n2C)cc1 [Compound 29b, 1,3,7-Trimethyl-8-(4-methoxystyryl)xanthine] |  |
| 3030 | 0.24 | 12800 | CN(C)c1ccc(/C=C/c2nc3c([nH]2)c(=O)n(C)c(=O)n3C)cc1 [Compound 30a, 1,3-Dimethyl-8-(4-dimethylaminostyryl)xanthine] |  |
|  | > 1 | 9270 | CN(C)c1ccc(/C=C/c2nc3c(c(=O)n(C)c(=O)n3C)n2C)cc1 [Compound 30b] | inhibition at 30 µM ([1]; 1.5 h, at 3 × 10^-5, vs [3H]PIA, read-out: Percent displacement of specific binding (A1)): 5.6%; potency or selectivity in binding, in words [2]: displayed A2 -selectivity |
| 1600 | 2.7 | 600 ± 204 | COc1cccc(/C=C/c2nc3c([nH]2)c(=O)n(C)c(=O)n3C)c1OC [Compound 31a, 1,3-Dimethyl-8-(2,3-dimethoxystyryl)xanthine] |  |
| 2790 |  |  | CCn1c(=O)c2c(nc(/C=C/c3cc(OC)c(OC)c(OC)c3)n2C)n(CC)c1=O [Compound 45b] |  |
| 874 ± 222 |  |  | CCCn1c(=O)c2c(nc(/C=C/c3cccc(Cl)c3)n2C)n(CCC)c1=O [Compound 51b] |  |
